Where two headings read alike, the source gives them in different places.
Columns and labels:
[1] = physchem; conditions: thermodynamic from solid
Experimental: By apparent solubility is meant the solubility of the sumatriptan determined visually. The materials used were sumatriptan succinate and various reagents for preparation of the buffers. Hydrochloric acid was used for preparation of the pH 2 buffer, acetate for preparation of the pH 5 buffer, phosphate for preparation of the pH 7 buffer, and carbonate for the pH 9 buffer. The concentration of the buffers was 0.1 M.
A 1 mL aliquot of each buffer was placed in a glass scintillation vial. To this volume was added a small amount of sumatriptan. Each amount of sumatriptan was weighed on a balance. Weights typically ranged from between 5 and 35 mg. After each new addition of sumatriptan, the vial was shaken and visually inspected to determine if all of the sumatriptan was in solution. When small particles of undissolved sumatriptan appeared, no further amount of sumatriptan was added. These amounts of sumatriptan added before the final addition was added together and were listed as the lower limit of each pH. The upper limit of solubility was taken to be the sum total of sumatriptan added to the buffer when undissolved sumatriptan appeared. […] The diamond symbol in FIG. 1 represents the average value between the lower and upper limit.

[2] = Stability of sumatriptan succinate in water and buffers of pH 2, 5, 7, 9 (HPLC); assay type: physicochemical; conditions: buffers with a pH of about 2 to 5, one month at 50° C. (additional studies not presented)
[3] = Characterization of unknown oxidation impurity (LC-MS, HPLC); assay type: physicochemical
Experimental: HPLC conditions were the same as that for impurity C and D analysis, and the product peaks were injected into an electrospray ionization mass spectrometer.
To confirm whether oxidation of sumatriptan would lead to the formation of this impurity, sumatriptan succinate was incubated with 25% H2O2 for 2 hours and 24 hours followed by LC-MS analysis.
To test the presence of this impurity in sumatriptan succinate procured from different vendors, solid sumatriptan in powder form as well as sumatriptan dissolved in water were analyzed by HPLC.

[4] = Formulation at different pH: impurities after two weeks at 50° C.; assay type: physicochemical; conditions: unbuffered (self-buffering)
Experimental: Sumatriptan succinate has a self-buffering capacity due to it being a succinic acid salt.
These formulations were kept on stability studies at 50° C. for two weeks.
Levels of each impurity are expressed as percentage (w/w) of sumatriptan, and RT is the retention time in minutes.

[5] = cited from earlier work
[6] = pH 5

CNS(=O)(=O)Cc1ccc2[nH]cc(CCN(C)C)c2c1.O=C(O)CCC(=O)O [Sumatriptan succinate, 3-[2-(dimethylamino)ethyl]-N-methyl-indole-5-methanesulfonamide succinate (1:1)]
solubility ([1]; aqueous buffer, apparent solubility): 100 to 115 mg/mL
solubility ([1]; pH 2, simulated gastric fluid, Apparent solubility, Lower Limit): 149 mg/mL
solubility ([1]; pH 2, simulated gastric fluid, Apparent solubility, Upper Limit): 162 mg/mL
solubility ([1]; pH 5, aqueous buffer, Apparent solubility, Lower Limit): 110 mg/mL
solubility ([1]; pH 5, aqueous buffer, Apparent solubility, Upper Limit): 120 mg/mL
solubility ([1]; pH 7, aqueous buffer, Apparent solubility, Lower Limit): 138 mg/mL
solubility ([1]; pH 7, aqueous buffer, Apparent solubility, Upper Limit): 151 mg/mL
solubility ([1]; pH 9, aqueous buffer, Apparent solubility, Lower Limit): 138 mg/mL
solubility ([1]; pH 9, aqueous buffer, Apparent solubility, Upper Limit): 140 mg/mL
degradation [2]: 1.5%
oxidation impurity (chromatogram) ([3]; 25% v/v H2O2 solution at room temperature for 2 hours): formation of the oxidation impurity
oxidation impurity (HPLC) ([3]; aqueous solution at 50° C. for two weeks): formed upon incubation
oxidation impurity (chromatogram) ([3]; solid powder at 4° C.): not present
oxidation impurity (chromatogram) ([3]; solid powder at 50° C.): not present
pH of solutions [4]: 4.5-5
bioavailability ([5]; 6 mg subcutaneous injection): 97%
bioavailability ([5]; 20 mg nasal spray): 17%
Tmax ([5]; 50 mg tablet): 2.5 h
elimination half-life ([5]; in vivo): about 2 hours
Tmax ([5]; nasal spray): 1 h
absolute bioavailability ([5]; oral administration): about 14%
Tmax ([5]; subcutaneous injection): 0.2 h

HPMC
Percent Degradation After 1 month at 50° C. [6]: 0.64%

PEG 400
Percent Degradation After 1 month at 50° C. [6]: 14%

Tween ™ 80
Percent Degradation After 1 month at 50° C. [6]: 0.49%

Xanthan Gum
Percent Degradation After 1 month at 50° C. [6]: 0.07%

From patent US20070166336A1, “Stable and palatable oral liquid sumatriptan compositions” (priority 2005, published 2007)
